The values below come from patent US8183415B2, “Methods of synthesizing cinacalcet and salts thereof” (Amgen, Inc., priority 2007, dated 2012).

Where a name gives a salt, the structure may show the parent alone.

The target of data set [1] is T1, calcium-sensing receptor (Homo sapiens, UniProt P41180).
T1 construct: a calcium-sensing receptor on the cell surface of the parathyroid gland; from tissue; host or cells: parathyroid gland of patients (in vivo, clinical use)
T1 sequence (P41180 20-1078): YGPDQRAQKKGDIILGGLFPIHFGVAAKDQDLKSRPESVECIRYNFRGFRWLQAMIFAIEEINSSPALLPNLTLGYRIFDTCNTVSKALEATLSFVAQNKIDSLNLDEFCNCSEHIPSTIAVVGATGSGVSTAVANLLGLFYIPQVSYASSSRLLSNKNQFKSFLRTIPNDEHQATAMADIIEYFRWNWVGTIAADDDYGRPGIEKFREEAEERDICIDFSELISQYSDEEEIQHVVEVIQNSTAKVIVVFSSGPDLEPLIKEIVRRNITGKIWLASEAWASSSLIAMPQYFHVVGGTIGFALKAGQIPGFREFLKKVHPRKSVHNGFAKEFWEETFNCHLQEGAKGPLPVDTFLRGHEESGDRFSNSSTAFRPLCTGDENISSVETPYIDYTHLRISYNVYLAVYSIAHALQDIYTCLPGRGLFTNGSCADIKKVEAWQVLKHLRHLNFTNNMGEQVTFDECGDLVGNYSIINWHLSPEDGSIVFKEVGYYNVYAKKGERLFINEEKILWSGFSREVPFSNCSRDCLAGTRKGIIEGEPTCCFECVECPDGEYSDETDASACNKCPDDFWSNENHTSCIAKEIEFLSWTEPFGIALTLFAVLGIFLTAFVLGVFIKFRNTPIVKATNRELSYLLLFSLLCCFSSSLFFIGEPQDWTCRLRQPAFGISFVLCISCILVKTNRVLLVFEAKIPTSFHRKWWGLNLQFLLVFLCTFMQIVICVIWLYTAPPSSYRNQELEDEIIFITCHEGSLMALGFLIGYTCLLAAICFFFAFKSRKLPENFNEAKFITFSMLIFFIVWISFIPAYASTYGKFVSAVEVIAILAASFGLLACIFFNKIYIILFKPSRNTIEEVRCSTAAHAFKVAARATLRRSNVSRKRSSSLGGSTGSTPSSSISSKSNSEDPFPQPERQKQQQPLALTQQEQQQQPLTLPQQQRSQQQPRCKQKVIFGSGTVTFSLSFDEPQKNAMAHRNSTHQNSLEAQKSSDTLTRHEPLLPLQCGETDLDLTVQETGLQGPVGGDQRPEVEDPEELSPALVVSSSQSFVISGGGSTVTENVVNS
To be noted: patients with parathyroid carcinoma; cited from earlier work.

The target of data set [2] is T1, calcium-sensing receptor. Particulars: patients with chronic kidney disease on dialysis with secondary hyperparathyroidism; cited from earlier work.

As to `C[C@@H](NCCCc1cccc(C(F)(F)F)c1)c1cccc2ccccc12.Cl` [Form III], the “thermodynamic stability of crystalline form” value (variety of solvent systems and crystallization methods, XRPD) is “metastable form”.

`C[C@@H](NCCCc1cccc(C(F)(F)F)c1)c1cccc2ccccc12.Cl` [Form II]: the “stability of crystalline form” value (at room temperature) is “unstable”.

Take `C[C@@H](NCCCc1cccc(C(F)(F)F)c1)c1cccc2ccccc12` [Sensipar, N-[1-(R)-(−)-(1-naphthyl)ethyl]-3-[3-(trifluoromethyl)phenyl]-1-aminopropane hydrochloride]: the “effect on calcium levels” value in data set [1] is reported as “reduce high levels of calcium”. Further, the therapeutic efficacy result in data set [2] is recorded as “therapeutically effective”.
